Test results from patent US20250144069A1, “BILOBALIDE DERIVATIVE COMPOUNDS FOR TREATING NEUROLOGICAL DISEASES AND CANCERS” (The Chinese University of Hong Kong, priority 2023, published 2025).

Assays:
[1] = Single-dose CCK-8 cell viability screening (adherent cells); type: cell-based, human; settings: Homo sapiens, A549, 48 h, average of A549 and Jurkat % viability, 50 uM, 48 h
A549 cells [2] = assay: as above; type: cell-based, human; settings: A549 cells, 50 uM, 48 h, CCK-8
Jurkat cells [3] = assay: Single-dose CCK-8 cell viability screening (suspension cells); type: cell-based, human; settings: Jurkat cells, 50 uM
A549 cells [4] = assay: Dose-dependent CCK8 viability assay; type: cell-based, human
Protocol: (§1) In this example, dose-dependent CCK8 Viability assay was performed to determine the IC50 (the concentration of compound to achieve 50% viability) of several of the hit compounds identified from Example 2. A variety of cell lines were used: • Jurkat cells: Human leukemia • A549 cells: Human NSCLC • KP-1 cells: Mouse NSCLC with KRAS and P53 mutations • MCF-7 cells: Human breast cancer
(§2) Method for Adherent Cells (A549, MCF-7 and KP-1 Cells)
(§3) 5000 cells/100 uL were seeded in 96-well plates and incubate at 37° C.+5% CO2 overnight. Media were replaced with 100 uL of compound per well in 6 replicates in a series of 2-fold dilutions. The following controls were prepared.
(§4) Blank control: 100 uL 0.1% DMSO in media with no cells per well.
(§5) Positive control: 100 uL of 10 uM 5-flurouracil per well.
(§6) Negative control: 100 uL of 0.1% DMSO in media per well.
(§7) Each 96-well plate included 1 compound in 7 concentrations and a complete set of controls (in 6 replicates).
(§8) Cells were incubated at 37° C.+5% CO2 for 46 hours. 10 uL of CCK8 solution was added to each well. Cells were incubated at 37° C.+5% CO2 for 2 hours. Absorbance at 450 nm was measured using a multiplate reader.
(§9) Viability was calculated using the equation: […]

KP-1 cells = assay: Dose-dependent CCK8 viability assay; type: cell-based; settings: Mus musculus, 48 hours
Protocol: as §1, §2, §3, §4, §5, §6, §7, §8, §9

MCF-7 cells = assay: Dose-dependent CCK8 viability assay; type: cell-based; settings: Homo sapiens, MCF7, 48 hours
Protocol: as §1, §2, §3, §4, §5, §6, §7, §8, §9

Jurkat cells [5] = assay: Dose-dependent CCK8 viability assay; type: cell-based; settings: Homo sapiens, 48 hours
Protocol: as §1
Method for Suspension Cells (Jurkat Cells)
5000 cells/90 uL were seeded in 96-well plates. 10 uL of compound (10×) in various concentrations was added to each well in 6 replicates. The following controls were prepared.
Blank control: 10 uL 1% DMSO in media with no cells per well.
Positive control: 10 uL of 100 uM 5-flurouracil (10×) per well.
Negative control: 10 uL of 1% DMSO in media (10×) per well.
Note: Each 96-well plate can test 1 compound in 7 concentrations with a complete set of controls (in 6 replicates)
as §8
Viability was calculated using this equation: […]

NCI-60 cell line panel = assay: NCI-60 Human Tumor Cell Lines Screen, one-dose screen (SRB); type: cell-based; settings: 48 hours
From the text: In this example, the cytotoxic effect of DW192 was assess via the NCI-60 Human Tumor Cell Lines Screen, provided by the Developmental Therapeutics Program (DTP) of the National Cancer Institute (NCI) in the United States. This screening helps to identify and characterize the cytotoxic effect of compounds on 60 different human cancer cell lines, including leukemia, melanoma, and cancers of the lung, colon, brain, ovary, breast, prostate and kidneys. The screening comprised of two assays: one-dose screen and five-dose screen. In one-dose screen, 10 μM of DW192 was tested for 48 hours. In five-dose screen, four, 10-fold of ½ log serial dilutions were tested for 48 hours.
Method (Extracted from the NCI-60 Website)
Cells were seeded into 96-well plates in 100 uL at plating densities ranging from 5,000 to 40,000 cells/well depending on the doubling time of individual cell lines. Plates were incubated at 37° C.+5% CO2+95% air+100% relative humidity for 24 hours before adding compounds. Two plates of each cell line were fixed in situ with TCA, to represent a measurement of the cell population for each cell line at the time of drug addition (Tz). 100 uL of compounds in four, 10-fold of ½ log serial dilutions were added to the wells already containing 100 uL of medium. Plates were incubated at 37° C.+5% CO2+95% air+100% relative humidity for an additional 48 hours.
To terminate the assay, adherent cells were fixed in situ by the gentle addition of 50 uL of cold 50% (w/v) TCA (final concentration, 10% TCA) and incubated for 60 min at 4° C. For suspension cells, 50 uL of 80% TCA (final concentration, 16% TCA) was used.
Supernatant was discarded, and the plates were wash five times with tap water and air dried. […]
Remaining stained cells were solubilized with 10 mM trizma base. Absorbance at 515 nm was measured.
Percentage growth was calculated using the following equations:
[formula] [formula] • where Tz=absorbance at time zero, C=absorbance of control growth, Ti=absorbance of test growth in the presence of drug at the five concentration levels.

B16 melanoma cells = assay: B16 melanoma allograft in C57BL/6 mice; type: in vivo; settings: 40 mg/kg daily subcutaneous injections, 21 days
Protocol: In the example, C57BL/6 mice were subcutaneously injected with B16 melanoma cells. Tumor cells were allowed to develop for one week, after that mice were treated with daily subcutaneous injections of vehicle or DW192 (40 mg/kg) for 21 days. FIG. 12A is a plot showing the tumor growth curves.

For `CC(C)(C)[C@]1(O)C[C@@H]2OC(=O)C[C@@]23C(=O)O[C@@H]2N(CC4C5CC6CC(C5)CC4C6)C(=O)[C@H](OC(=O)c4ccccc4)[C@]213` (stereo partly drawn) [DW192, (3aS,5aS,8R,8aS,9R,10aS)-6-(((1S,5R,7S)-adamantan-2-yl)methyl)-9-(tert-butyl)-9-hydroxy-2,4,7-trioxooctahydro-4H,9H-furo [3″,2″:2′,3′]cyclopenta[1′,2′:3,4]furo[2,3-b]pyrrol-8-yl benzoate], the viability at 50 µM [1] was 48.2%, the “% Viability (50 uM, 48 h) A549” value (A549 cells [2]) was 53.19% and the viability at 50 µM (A549 cells [2]; Homo sapiens, A549, 48 h, read-out: % Viability (50 uM, 48 h) A549) was 53%. For the same molecule, the viability at 50 µM (Jurkat cells [3]; Homo sapiens, Jurkat, 48 h, CCK-8, read-out: % Viability (50 uM, 48 h) Jurkat) was 43%, the “% Viability (50 uM, 48 h) Jurkat” value (Jurkat cells [3]; CCK-8, 50 µM) was 43.26% and the IC50 (A549 cells [4]; 48 hours) was 16.4 µM. It also gave an IC50 (A549 cells [4]; Homo sapiens, A549, 48 h) of 21.9 µM, an IC50 (KP-1 cells) of 15.8 µM and an IC50 (MCF-7 cells) of 19.6 µM. The IC50 (Jurkat cells [5]) was 21.9 µM, the “cytotoxic effect across the NCI-60 cell line panel” value (NCI-60 cell line panel; 10 μM) was “exhibits cytotoxic effects towards multiple cell lines of different cancer type” and the lethality (NCI-60 cell line panel; COL0205 (colon cancer), 10 μM) was 66.18%. For the same molecule, the inhibition at 10 µM (NCI-60 cell line panel; Homo sapiens, HOP-62, HOP62 (NSCLC), read-out: growth inhibition) was 50.2% and the “tumor growth and size” value (B16 melanoma cells) was “significantly reduced the growth and size of melanoma tumors”.
